From patent US20240398828A1, “HETERO-ATOM CONTAINING COMPOUNDS AND USES THEREOF” (Kumquat Biosciences Inc., priority 2021, published 2024) come the findings set out here.

One assay has as its target T1, PTPN1 (i.e., PTP1B) (Homo sapiens, UniProt P18031).
T1 sequence (P18031 1-435): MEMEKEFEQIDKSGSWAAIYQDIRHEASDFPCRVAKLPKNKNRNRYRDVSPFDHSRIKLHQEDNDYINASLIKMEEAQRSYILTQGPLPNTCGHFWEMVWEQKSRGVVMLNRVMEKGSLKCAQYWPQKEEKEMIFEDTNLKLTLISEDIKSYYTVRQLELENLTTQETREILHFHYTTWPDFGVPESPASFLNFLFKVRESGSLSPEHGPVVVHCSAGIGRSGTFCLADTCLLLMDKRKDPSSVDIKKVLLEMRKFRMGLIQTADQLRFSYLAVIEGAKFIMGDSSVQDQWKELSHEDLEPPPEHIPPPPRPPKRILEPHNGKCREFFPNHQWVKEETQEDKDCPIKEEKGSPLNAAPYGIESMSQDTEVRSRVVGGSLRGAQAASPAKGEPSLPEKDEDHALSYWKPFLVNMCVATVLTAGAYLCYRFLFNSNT
The assay is described as follows: Phosphatase activity assay (DiFMUP substrate), PTP1B. Format: biochemical. As to conditions: compounds binned ≤1 uM or >1 uM. The method, boiled down: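 Read-out is continuous fluorescence of DiFMU (360 nm excitation, 450 nm emission) over about 15-30 minutes, with DiFMUP substrate at the enzyme's independently determined Km (PTPN2 approx. 45 μM final). Buffer: 50 mM HEPES pH 7.5, 150 mM NaCl, 0.5 mM EDTA, 1 mM DTT, 0.001% Tween-20, room temperature; initial rates versus 10-point dilution fitted for IC50, at least duplicate.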

Another assay has as its target T2, PTPN2 (i.e., TC-PTP) (Homo sapiens, UniProt P17706).
T2 sequence (P17706 1-415): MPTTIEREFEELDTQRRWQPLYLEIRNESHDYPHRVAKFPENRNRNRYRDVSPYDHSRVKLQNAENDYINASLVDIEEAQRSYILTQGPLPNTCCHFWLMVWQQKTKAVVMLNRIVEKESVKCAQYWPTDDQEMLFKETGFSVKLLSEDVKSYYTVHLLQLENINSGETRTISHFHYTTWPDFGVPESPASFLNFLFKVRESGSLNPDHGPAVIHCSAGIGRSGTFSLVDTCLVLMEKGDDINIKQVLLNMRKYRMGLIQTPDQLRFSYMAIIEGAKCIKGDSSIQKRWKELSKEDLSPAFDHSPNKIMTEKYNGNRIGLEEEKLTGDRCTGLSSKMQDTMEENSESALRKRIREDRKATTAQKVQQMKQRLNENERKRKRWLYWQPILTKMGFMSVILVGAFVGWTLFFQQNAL
The assay is described as follows: Phosphatase activity assay (DiFMUP substrate), PTPN2. Format: biochemical. The conditions noted are these: compounds binned ≤1 uM or >1 uM. A digest of the protocol:
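Using a Km-level DiFMUP substrate and 0.025 ng/ul PTPN2, phosphatase activity is tracked by DiFMU emission at 450 nm over about 15–30 minutes. Initial rates at ten inhibitor concentrations give IC50 by four-parameter fitting.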

For `O=C1CN(c2c(O)ccc(-c3cc(C4CC4)nn3CC3CC3)c2F)S(=O)(=O)N1` [Compound 239, 5-(3-(3-cyclopropyl-1-(cyclopropylmethyl)-1H-pyrazol-5-yl)-2-fluoro-6-hydroxyphenyl)-1,2,5-thiadiazolidin-3-one 1,1-dioxide], the half-inhibitory concentration (IC50) – broadly, the concentration that gives 50% inhibition – is ≤ 1000 nM on PTPN1 (i.e., PTP1B) and ≤ 1000 nM on PTPN2 (i.e., TC-PTP).
With `N#Cc1cccc(-n2cnc(-c3ccc(O)c(N4CC(=O)NS4(=O)=O)c3F)c2)c1` [Compound 361, 3-(4-(3-(1,1-dioxido-4-oxo-1,2,5-thiadiazolidin-2-yl)-2-fluoro-4-hydroxyphenyl)-1H-imidazol-1-yl)benzonitrile], the half-maximal inhibitory concentration (IC50) on PTPN1 (i.e., PTP1B) was ≤ 1000 nM; on PTPN2 (i.e., TC-PTP), ≤ 1000 nM.
Regarding `O=C1CN(c2c(O)ccc(-c3nnc(-c4ccccc4)o3)c2F)S(=O)(=O)N1` [Compound 121, 5-(2-fluoro-6-hydroxy-3-(5-phenyl-1,3,4-oxadiazol-2-yl)phenyl)-1,2,5-thiadiazolidin-3-one 1,1-dioxide], the half-maximal inhibitory concentration (IC50) at PTPN1 (i.e., PTP1B) was > 1000 nM; at PTPN2 (i.e., TC-PTP), > 1000 nM.
Take `CC(C)CCn1cc(-c2ccc(O)c(N3CC(=O)NS3(=O)=O)c2F)c(=O)[nH]1` [Compound 444, 5-(2-fluoro-6-hydroxy-3-(1-isopentyl-3-oxo-2,3-dihydro-1H-pyrazol-4-yl)phenyl)-1,2,5-thiadiazolidin-3-one 1,1-dioxide]: the concentration for half-maximal inhibition (IC50) is ≤ 1000 nM on PTPN1 (i.e., PTP1B) and ≤ 1000 nM on PTPN2 (i.e., TC-PTP).
As to `O=C1CN(c2c(O)ccc(C3=CCC(NS(=O)(=O)C4CC4)CC3)c2F)S(=O)(=O)N1` (stereo not drawn) [Compound 317, N-(3′-(1,1-dioxido-4-oxo-1,2,5-thiadiazolidin-2-yl)-2′-fluoro-4′-hydroxy-2,3,4,5-tetrahydro-[1,1′-biphenyl]-4-yl)cyclopropanesulfonamide], the IC50 at PTPN1 (i.e., PTP1B) is ≤ 1000 nM; at PTPN2 (i.e., TC-PTP), ≤ 1000 nM.
Regarding `O=C1CN(c2c(O)ccc(C3=CCOC3)c2F)S(=O)(=O)N1` [Compound 291, 5-(3-(2,5-dihydrofuran-3-yl)-2-fluoro-6-hydroxyphenyl)-1,2,5-thiadiazolidin-3-one 1,1-dioxide], the half-inhibitory concentration (IC50) at PTPN1 (i.e., PTP1B) is ≤ 1000 nM; on PTPN2 (i.e., TC-PTP), ≤ 1000 nM.
For `CCn1cc(-c2ccc(O)c(N3CC(=O)NS3(=O)=O)c2F)c(F)n1` [Compound 506, 5-(3-(1-ethyl-3-fluoro-1H-pyrazol-4-yl)-2-fluoro-6-hydroxyphenyl)-1,2,5-thiadiazolidin-3-one 1,1-dioxide], the half-maximal inhibitory concentration (IC50) at PTPN1 (i.e., PTP1B) was ≤ 1000 nM; at PTPN2 (i.e., TC-PTP), ≤ 1000 nM.
As for `O=C1CN(c2c(O)ccc(-n3cc(C4CC4)c(O)n3)c2F)S(=O)(=O)N1` [Compound 458, 5-(3-(4-cyclopropyl-3-hydroxy-1H-pyrazol-1-yl)-2-fluoro-6-hydroxyphenyl)-1,2,5-thiadiazolidin-3-one 1,1-dioxide], the IC50 at PTPN1 (i.e., PTP1B) was ≤ 1000 nM; on PTPN2 (i.e., TC-PTP), ≤ 1000 nM.
On to `O=C1CN(c2c(O)ccc(-c3cc(N4CCCC4)n[nH]3)c2F)S(=O)(=O)N1` [Compound 343, 5-(2-fluoro-6-hydroxy-3-(3-(pyrrolidin-1-yl)-1H-pyrazol-5-yl)phenyl)-1,2,5-thiadiazolidin-3-one 1,1-dioxide], for which the IC50 at PTPN1 (i.e., PTP1B) is ≤ 1000 nM; on PTPN2 (i.e., TC-PTP), ≤ 1000 nM.
With `O=C1CN(c2c(O)ccc(-c3cnn(-c4cccnc4)c3)c2F)S(=O)(=O)N1` [Compound 102, 5-(2-fluoro-6-hydroxy-3-(1-(pyridin-3-yl)-1H-pyrazol-4-yl)phenyl)-1,2,5-thiadiazolidin-3-one 1,1-dioxide], the 50% inhibitory concentration (IC50) at PTPN1 (i.e., PTP1B) was ≤ 1000 nM; at PTPN2 (i.e., TC-PTP), ≤ 1000 nM.
Consider `CC(C)N1CC=C(c2ccc(O)c(N3CC(=O)NS3(=O)=O)c2F)C1` [Compound 461, 5-(2-fluoro-6-hydroxy-3-(1-isopropyl-2,5-dihydro-1H-pyrrol-3-yl)phenyl)-1,2,5-thiadiazolidin-3-one 1,1-dioxide], for which the IC50 at PTPN1 (i.e., PTP1B) was ≤ 1000 nM; at PTPN2 (i.e., TC-PTP), ≤ 1000 nM.
Consider `O=C1CN(c2c(O)ccc(C3=CC(CC4CC4)NC3)c2F)S(=O)(=O)N1` (stereo not drawn) [Compound 522, 5-(3-(5-(cyclopropylmethyl)-2,5-dihydro-1H-pyrrol-3-yl)-2-fluoro-6-hydroxyphenyl)-1,2,5-thiadiazolidin-3-one 1,1-dioxide], for which the 50% inhibitory concentration (IC50) at PTPN1 (i.e., PTP1B) is ≤ 1000 nM; at PTPN2 (i.e., TC-PTP) it was ≤ 1000 nM.
`O=C1CN(c2c(O)ccc(-c3c[nH]nc3F)c2F)S(=O)(=O)N1` [Compound 507, 5-(2-fluoro-3-(3-fluoro-1H-pyrazol-4-yl)-6-hydroxyphenyl)-1,2,5-thiadiazolidin-3-one 1,1-dioxide]: the concentration for half-maximal inhibition (IC50) was ≤ 1000 nM on PTPN1 (i.e., PTP1B) and ≤ 1000 nM at PTPN2 (i.e., TC-PTP).
As for `O=C1CN(c2c(O)ccc(-c3ccc(NS(=O)(=O)CC4CC4)cc3)c2F)S(=O)(=O)N1` [Compound 231, 1-cyclopropyl-N-(3′-(1,1-dioxido-4-oxo-1,2,5-thiadiazolidin-2-yl)-2′-fluoro-4′-hydroxy-[1,1′-biphenyl]-4-yl)methanesulfonamide], the half-inhibitory concentration (IC50) is ≤ 1000 nM at PTPN1 (i.e., PTP1B) and ≤ 1000 nM at PTPN2 (i.e., TC-PTP).
For the molecule `Cn1cc(-c2ccc(O)c(N3CC(=O)NS3(=O)=O)c2F)c(C(F)(F)F)n1` [Compound 192, 5-(2-fluoro-6-hydroxy-3-(1-methyl-3-(trifluoromethyl)-1H-pyrazol-4-yl)phenyl)-1,2,5-thiadiazolidin-3-one 1,1-dioxide], the IC50 is ≤ 1000 nM at PTPN1 (i.e., PTP1B) and > 1000 nM at PTPN2 (i.e., TC-PTP).
Turning to `Cn1ccc(-c2cc(-c3ccc(O)c(N4CC(=O)NS4(=O)=O)c3F)[nH]n2)c1` [Compound 333, 5-(2-fluoro-6-hydroxy-3-(3-(1-methyl-1H-pyrrol-3-yl)-1H-pyrazol-5-yl)phenyl)-1,2,5-thiadiazolidin-3-one 1,1-dioxide], the IC50 on PTPN1 (i.e., PTP1B) was ≤ 1000 nM; on PTPN2 (i.e., TC-PTP) it was ≤ 1000 nM.
Turning to `N#CNC(=N)N1CCC=C(c2ccc(O)c(N3CC(=O)NS3(=O)=O)c2F)C1` [Compound 535, N-cyano-5-(3-(1,1-dioxido-4-oxo-1,2,5-thiadiazolidin-2-yl)-2-fluoro-4-hydroxyphenyl)-3,6-dihydropyridine-1(2H)-carboximidamide], the half-inhibitory concentration (IC50) on PTPN1 (i.e., PTP1B) was ≤ 1000 nM; at PTPN2 (i.e., TC-PTP), ≤ 1000 nM.
Regarding `O=C1CN(c2c(O)ccc(-c3cnn(C(=O)C4CC4)c3)c2F)S(=O)(=O)N1` [Compound 537, 5-(3-(1-(cyclopropanecarbonyl)-1H-pyrazol-4-yl)-2-fluoro-6-hydroxyphenyl)-1,2,5-thiadiazolidin-3-one 1,1-dioxide], the IC50 on PTPN1 (i.e., PTP1B) is ≤ 1000 nM; on PTPN2 (i.e., TC-PTP) it was ≤ 1000 nM.
In the case of `O=C1CN(c2c(O)ccc(-n3cc(C4CC4)cn3)c2F)S(=O)(=O)N1` [Compound 270, 5-(3-(4-cyclopropyl-1H-pyrazol-1-yl)-2-fluoro-6-hydroxyphenyl)-1,2,5-thiadiazolidin-3-one 1,1-dioxide], the IC50 at PTPN1 (i.e., PTP1B) was > 1000 nM; at PTPN2 (i.e., TC-PTP) it was > 1000 nM.
For `CN1CCN(c2ccc(-c3ccc(O)c(N4CC(=O)NS4(=O)=O)c3F)cn2)CC1` [Compound 202, 5-(2-fluoro-6-hydroxy-3-(6-(4-methylpiperazin-1-yl)pyridin-3-yl)phenyl)-1,2,5-thiadiazolidin-3-one 1,1-dioxide], the concentration for half-maximal inhibition (IC50) at PTPN1 (i.e., PTP1B) was ≤ 1000 nM; at PTPN2 (i.e., TC-PTP) it was ≤ 1000 nM.
On to `O=C1CN(c2c(O)ccc(-c3cnn(C4CN(C5CC5)C4)c3)c2F)S(=O)(=O)N1` [Compound 275, 5-(3-(1-(1-cyclopropylazetidin-3-yl)-1H-pyrazol-4-yl)-2-fluoro-6-hydroxyphenyl)-1,2,5-thiadiazolidin-3-one 1,1-dioxide], for which the IC50 at PTPN1 (i.e., PTP1B) is ≤ 1000 nM; on PTPN2 (i.e., TC-PTP), ≤ 1000 nM.
Take `O=C1CN(c2c(O)ccc(-c3cnn(Cc4ccc(Cl)cc4)c3)c2F)S(=O)(=O)N1` [Compound 189, 5-(3-(1-(4-chlorobenzyl)-1H-pyrazol-4-yl)-2-fluoro-6-hydroxyphenyl)-1,2,5-thiadiazolidin-3-one 1,1-dioxide]: the IC50 on PTPN1 (i.e., PTP1B) is ≤ 1000 nM; on PTPN2 (i.e., TC-PTP), ≤ 1000 nM.
Turning to `CC(C)n1cc(-c2ccc(O)c(N3CC(=O)NS3(=O)=O)c2F)c(F)n1` [Compound 467, 5-(2-fluoro-3-(3-fluoro-1-isopropyl-1H-pyrazol-4-yl)-6-hydroxyphenyl)-1,2,5-thiadiazolidin-3-one 1,1-dioxide], the 50% inhibitory concentration (IC50) on PTPN1 (i.e., PTP1B) is ≤ 1000 nM; on PTPN2 (i.e., TC-PTP), ≤ 1000 nM.
For `Cn1ncc2cc(-c3ccc(O)c(N4CC(=O)NS4(=O)=O)c3F)cnc21` [Compound 156, 5-(2-fluoro-6-hydroxy-3-(1-methyl-1H-pyrazolo[3,4-b]pyridin-5-yl)phenyl)-1,2,5-thiadiazolidin-3-one 1,1-dioxide], the IC50 at PTPN1 (i.e., PTP1B) is ≤ 1000 nM; on PTPN2 (i.e., TC-PTP), ≤ 1000 nM.
